Reference: article PMC11830721 (Frontiers in Pharmacology, 2025)

Assays:
[1] = molecular target: T1, FLT3-ITD (Homo sapiens, UniProt P36888, ITD); experiment: ADP-Glo kinase-inhibition assay; format: biochemical; details: ADP-Glo; ATP 100 μM; FLT3-ITD 10 ng/μL
T1 sequence (P36888 27-993): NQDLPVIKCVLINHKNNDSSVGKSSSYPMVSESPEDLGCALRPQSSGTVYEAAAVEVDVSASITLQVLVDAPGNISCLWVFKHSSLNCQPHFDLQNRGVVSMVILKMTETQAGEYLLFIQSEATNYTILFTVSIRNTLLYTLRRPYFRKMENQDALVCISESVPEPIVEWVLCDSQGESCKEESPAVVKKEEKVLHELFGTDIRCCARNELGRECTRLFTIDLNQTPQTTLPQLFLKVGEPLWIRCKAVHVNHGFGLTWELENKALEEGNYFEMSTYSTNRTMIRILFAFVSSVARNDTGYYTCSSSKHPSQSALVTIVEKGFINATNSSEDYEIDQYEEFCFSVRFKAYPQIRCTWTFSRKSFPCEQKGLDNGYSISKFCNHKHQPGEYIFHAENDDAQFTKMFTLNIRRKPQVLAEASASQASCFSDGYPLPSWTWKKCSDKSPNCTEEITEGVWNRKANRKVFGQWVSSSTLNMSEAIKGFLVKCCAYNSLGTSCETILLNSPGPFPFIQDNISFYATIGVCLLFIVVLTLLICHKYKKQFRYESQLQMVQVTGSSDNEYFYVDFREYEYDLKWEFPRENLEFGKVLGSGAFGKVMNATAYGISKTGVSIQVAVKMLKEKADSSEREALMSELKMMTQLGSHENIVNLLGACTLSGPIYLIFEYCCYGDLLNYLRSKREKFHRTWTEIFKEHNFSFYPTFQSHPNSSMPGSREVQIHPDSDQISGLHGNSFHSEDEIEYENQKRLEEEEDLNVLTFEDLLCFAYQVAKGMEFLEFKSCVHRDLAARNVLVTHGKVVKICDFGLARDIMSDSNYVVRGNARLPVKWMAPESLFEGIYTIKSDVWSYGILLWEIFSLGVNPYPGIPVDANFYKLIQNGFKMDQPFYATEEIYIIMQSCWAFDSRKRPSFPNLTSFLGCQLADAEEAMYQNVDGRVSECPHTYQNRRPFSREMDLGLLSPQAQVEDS
Experimental: (§1) Subsequently, the kinase detection reagent was added and incubated for an additional 15 min. Finally, the mixture was incubated for 1 h, and relative luminescence units (RLU) were measured.
(§2) Moreover, we extended the kinase selectivity profiling of FLIN-4 to evaluate its inhibitory activity against 60 non-target kinases.

[2] = tested on: FLT3-ITD; experiment: ADP-Glo kinase-inhibition assay; format: biochemical; details: ratio of IC50 values vs Midostaurin
Experimental: as §1, §2

[3] = tested on: NB4 cells; experiment: MTT assay, NB4 (FLT3 wild-type); format: cell-based; details: 2–64 μM
Description: (§3) The human AML cell line MV4-11, which bears exclusive FLT3-ITD mutation genes, was purchased from the American Type Culture Collection (ATCC, Manassas, VA, United States), and the AML cell line NB4, a FLT3-wildtype cell line, was obtained from the China Center for Type Culture Collection (CCTCC, Wuhan, China). In addition, the normal hematopoietic cell line was COLO 829BL from ATCC. The cells were maintained in RPMI-1640 medium supplemented with 10% FBS, and 1% penicillin and streptomycin. The cells were cultured in an incubator at 37°C with 5% CO2. […] The high-performance liquid chromatography (HPLC) spectra data for each compound are provided in the (Supplementary Figures S1–S6). The FLT3-ITD mutant protein was purchased from Abcam (Cambridge, United Kingdom).
(§4) The effects of the test compounds on MV4-11, NB4, and COLO 829BL cell lines were quantitatively evaluated according to the methods previously reported ([Zhou et al., 2022]).
(§5) Subsequently, to further validate the specificity of FLIN-4 for cells expressing FLT3-ITD, we conducted MTT assays to assess the specificity and cytotoxicity of FLIN-4 within the concentration range of 2–64 μM on NB4 cells (harboring FLT3 wild-type) and COLO 829BL cells (representing normal hematopoietic cells). […]

[4] = tested on: MV4-11 cells; experiment: MTT anti-proliferation assay, MV4-11; format: cell-based; details: Homo sapiens, 72-h treatment
Experimental: In addition, the normal hematopoietic cell line was COLO 829BL from ATCC. The cells were maintained in RPMI-1640 medium supplemented with 10% FBS, and 1% penicillin and streptomycin. The cells were cultured in an incubator at 37°C with 5% CO2. […] The high-performance liquid chromatography (HPLC) spectra data for each compound are provided in the (Supplementary Figures S1–S6).
as §4

[5] = molecular target: T1, FLT3-ITD; experiment: Microscale thermophoresis (MST) binding affinity; details: 50 mM Tris, 230 mM NaCl, pH 7.0, labeled protein 50 nM
Experimental: The protein was labeled with a fluorescence tag utilizing a Lys Labeling Kit (NanoTemper), with a final concentration of 50 nM being achieved. Adhering to the manufacturer’s guidelines, the compounds were titrated from an initial concentration of 12.5 μM with a 1:1 dilution ratio. Next, each sample was centrifuged at 15,000 rpm for 5 min, followed by loading into standard glass capillaries for MST analysis.

[6] = tested on: COLO 829BL cells; experiment: MTT assay, COLO 829BL (normal hematopoietic); format: cell-based; details: 2–64 μM
Description: as §3, §4, §5

## CCc1nc(C(N)=O)c(Nc2ccc(N3CCC(Nc4ccccc4)CC3)c(OC)c2)nc1NC1CCOC(C(O)CO)C1 (stereo not drawn) [FLIN-4]
[1]
  IC50: 1.07 ± 0.04 nM
[2]
  FLT3-ITD inhibitory potency relative to Midostaurin: approximately 27 times
[3]
  Survival rate of NB4 cells: did not induce any significant changes in the survival rates
[4]
  IC50: 1.31 ± 0.06 nM
[5]
  Kd: 0.95 ± 0.06 nM
[6]
  Survival rate of COLO 829BL cells: did not induce any significant changes in the survival rates
